Experimental data published in patent US20110117055A1, “Methods of Treating Hepatitis C Virus with Oxoacetamide Compounds” (priority 2009, published 2011).

system: HCV2aChLuc virus; experiment: In vitro HCVcc entry assay: HCV2aChLuc virus infection of Huh7 cells, Renilla luciferase read-out; type: cell-based, HCV genotype 2a; conditions: Hepatitis C virus, Huh-7, read-out: Activity class (IC50), tested according to the method of Example 3

Q: How did the IC50 turn out when `COc1ccc(-n2nc(C(C)(C)C)cc2NC(=O)C(=O)c2ccc(OCCN3CCOCC3)c3ccccc23)cc1` [Compound 35] was run?
A: > 500 nM

Q: Which IC50 does the source give for `COc1c(NC(=O)C(=O)c2ccc(OCCN3CCNC(=O)C3)c3ccccc23)cc(C(C)(C)C)cc1NS(C)(=O)=O` [Compound 53] here?
A: > 500 nM

Q: Which IC50 does the source give for `COc1c(NC(=O)C(=O)c2ccc(OC)c3ccccc23)cc(C(C)(C)C)cc1C(=O)NCC1CC1` [Compound 17, 5-tert-butyl-N-(cyclopropylmethyl)-2-methoxy-3-(2-(4-methoxynaphthalen-1-yl)-2-oxoacetamido)benzamide] here?
A: < 5 nM

Q: For `COc1c(NC(=O)C(=O)c2ccc(OC)c3ccccc23)cc(C(C)(C)C)cc1NS(C)(=O)=O` [Compound 75], which IC50 is on record?
A: 5 to 500 nM

Q: With `CC(C)(C)c1cc(NC(=O)C(=O)c2ccc(OCCN3CCOCC3)c3ccccc23)no1` [Compound 60] as the compound, how does the IC50 read?
A: > 500 nM

Q: `COc1c(NC(=O)C(=O)c2ccc(OCCN3CCOCC3)c3ccccc23)cc(C(C)(C)C)cc1C(=O)Nc1ccccn1` [Compound 10, 5-tert-butyl-2-methoxy-3-(2-(4-(2-morpholinoethoxy)naphthalen-1-yl)-2-oxoacetamido)-N-(pyridin-2-yl)benzamide] was tested. Which IC50 did it give?
A: < 5 nM

Q: `COc1c(NC(=O)C(=O)c2ccc(OCCN3CCOCC3)c3ccccc23)cc(C(C)(C)C)cc1-c1nnn[nH]1` [Compound 91] was tested. Which IC50 did it give?
A: > 500 nM

Q: With `COc1c(NC(=O)C(=O)c2ccc(OCCN3CCCCC3)c3ccccc23)cc(C(C)(C)C)cc1NS(C)(=O)=O` [Compound 111] as the compound, how does the IC50 read?
A: 5 to 500 nM

Q: `COc1c(N)cc(C(C)(C)C)cc1NC(=O)C(=O)c1cccc2ccccc12` [Compound 132] was tested. Which IC50 did it give?
A: > 500 nM

Q: With `CNc1ccc(-c2ccc(C(=O)C(=O)Nc3cc(C(C)(C)C)cc(C(=O)NC4CC4)c3OC)c3ccccc23)cn1` [Compound 130] as the compound, how does the IC50 read?
A: > 500 nM

Q: For `O=C(N[C@@H]1C[C@H]2CC[C@@H]1C2)C(=O)c1ccc(OCCN2CCOCC2)c2ccccc12` [Compound 68], which IC50 is on record?
A: > 500 nM

Q: For `COc1ccc(C(C)(C)C)cc1NC(=O)C(=O)c1ccc(OC)c2ccccc12` [Compound 14, N-(5-tert-butyl-2-methoxyphenyl)-2-(4-methoxynaphthalen-1-yl)-2-oxoacetamide], which IC50 is on record?
A: < 5 nM

Q: `Cn1nc(C(C)(C)C)cc1NC(=O)C(=O)c1ccc(OCCN2CCOCC2)c2ccccc12` [Compound 50] was tested. Which IC50 did it give?
A: > 500 nM

Q: How did the IC50 turn out when `Cc1ccc(-n2nc(C(C)(C)C)cc2NC(=O)C(=O)c2ccc(OCCN3CCS(=O)(=O)CC3)c3ccccc23)cc1` [Compound 36] was run?
A: > 500 nM

Q: With `COc1c(NC(=O)C(=O)c2ccc(OCCN3CCOCC3)c3ccccc23)cc(C(C)(C)C)cc1C(=O)N1CCN(C(C)C)CC1` [Compound 99] as the compound, how does the IC50 read?
A: 5 to 500 nM

Q: Which IC50 does the source give for `CNC(=O)c1cc(C(C)(C)C)cc(NC(=O)C(=O)c2ccc(OCCN3CCOCC3)c3ccccc23)c1OC` [Compound 6, 5-tert-butyl-2-methoxy-N-methyl-3-(2-(4-(2-morpholinoethoxy)naphthalen-1-yl)-2-oxoacetamido)benzamide] here?
A: < 5 nM

Q: Which IC50 does the source give for `COc1c(NC(=O)C(=O)c2ccc(OCCN3CCOCC3)c3ccccc23)cc(C)cc1NS(C)(=O)=O` [Compound 13, N-(2-methoxy-5-methyl-3-(methylsulfonamido)phenyl)-2-(4-(2-morpholinoethoxy)naphthalen-1-yl)-2-oxoacetamide] here?
A: 5 to 500 nM

Q: `CNc1ccc(-c2ccc(C(=O)C(=O)Nc3cc(C(C)(C)C)cc(C(N)=O)c3OC)c3ccccc23)cn1` [Compound 137] was tested. Which IC50 did it give?
A: < 5 nM

Q: How did the IC50 turn out when `CC(C)(C)c1cc(CN2CCOCC2)c(O)c(NC(=O)C(=O)c2ccc(OCCN3CCOCC3)c3ccccc23)c1` [Compound 29] was run?
A: > 500 nM

Q: How did the IC50 turn out when `CC(C)(C)c1ccc(O)c(NC(=O)C(=O)c2ccc(OCCN3CCOCC3)c3ccccc23)c1` [Compound 122] was run?
A: 5 to 500 nM

Q: How did the IC50 turn out when `CCOc1ccc(C(=O)C(=O)Nc2cc(C(C)(C)C)ccc2OC)c2ccccc12` [Compound 19, N-(5-tert-butyl-2-methoxyphenyl)-2-(4-ethoxynaphthalen-1-yl)-2-oxoacetamide] was run?
A: < 5 nM

Q: `CCNC(=O)c1cc(C(C)(C)C)cc(NC(=O)C(=O)c2ccc(-c3ccc(NC)nc3)c3ccccc23)c1OC` [Compound 138] was tested. Which IC50 did it give?
A: < 5 nM

Q: Which IC50 does the source give for `CCCS(=O)(=O)Nc1cc(C(C)(C)C)cc(NC(=O)C(=O)c2ccc(OC)c3ccccc23)c1OC` [Compound 78] here?
A: 5 to 500 nM

Q: How did the IC50 turn out when `COc1c(NC(=O)C(=O)c2ccc(OCCN3CCN(C)CC3)c3ccccc23)cc(C(C)(C)C)cc1NS(C)(=O)=O` [Compound 51] was run?
A: > 500 nM

Q: How did the IC50 turn out when `COc1c(Br)cc(C(C)(C)C)cc1NC(=O)C(=O)c1ccc(OCCN2CCOCC2)c2ccccc12` [Compound 89] was run?
A: 5 to 500 nM

Q: `COc1c(NC(=O)C(=O)c2ccc(OCCN3CCNCC3)c3ccccc23)cc(C(C)(C)C)cc1NS(C)(=O)=O` [Compound 58] was tested. Which IC50 did it give?
A: > 500 nM

Q: For `COc1c(NC(=O)C(=O)c2ccc(OCCN3CCOCC3)c3ccccc23)cc(C(C)(C)C)cc1C(=O)N1CCCCC1CN(C)C` (stereo not drawn) [Compound 106], which IC50 is on record?
A: > 500 nM

Q: With `COc1ccc(C(C)(C)C)cc1NC(=O)C(=O)c1ccc(-c2cccnc2)c2ccccc12` [Compound 127] as the compound, how does the IC50 read?
A: > 500 nM

Q: `CC(C)(C)c1ccccc1NC(=O)C(=O)c1ccc(OCCN2CCOCC2)c2ccccc12` [Compound 43] was tested. Which IC50 did it give?
A: > 500 nM

Q: With `COc1c(NC(=O)C(=O)c2ccc(OCCN3CC(C)(C)OC(C)(C)C3)c3ccccc23)cc(C(C)(C)C)cc1NS(C)(=O)=O` [Compound 96] as the compound, how does the IC50 read?
A: 5 to 500 nM

Q: Which IC50 does the source give for `COc1ccc(C(C)(C)C)cc1NC(=O)C(=O)c1ccc(OC(C)C)c2ccccc12` [Compound 20, N-(5-tert-butyl-2-methoxyphenyl)-2-oxo-2-[4-(propan-2-yloxy)naphthalen-1-yl]acetamide] here?
A: < 5 nM

Q: With `CC(=O)n1nc(C(C)(C)C)cc1NC(=O)C(=O)c1ccc(OCCN2CCOCC2)c2ccccc12` [Compound 46] as the compound, how does the IC50 read?
A: > 500 nM

Q: How did the IC50 turn out when `Cc1cccc(-n2nc(C(C)(C)C)cc2NC(=O)C(=O)c2ccc(OCCN3CCOCC3)c3ccccc23)c1C` [Compound 49] was run?
A: > 500 nM

Q: For `CCC(C)(C)c1cc(NC(=O)C(=O)c2ccc(OCCN3CCOCC3)c3ccccc23)c(OC)c(C(C)(C)CC)c1` [Compound 23], which IC50 is on record?
A: 5 to 500 nM

Q: Which IC50 does the source give for `COc1c(Cl)cc(C(C)(C)C)cc1NC(=O)C(=O)c1ccc(OCCN2CCOCC2)c2ccccc12` [Compound 72] here?
A: 5 to 500 nM

Q: Which IC50 does the source give for `CNc1ccc(-c2ccc(C(=O)C(=O)Nc3cc(C(C)(C)C)cc(NS(C)(=O)=O)c3OC)c3ccccc23)cn1` [Compound 131] here?
A: > 500 nM

Q: Which IC50 does the source give for `COc1c(NC(=O)C(=O)c2ccc(OCCN3CCOCC3)c3ccccc23)cc(C(C)(C)C)cc1C(=O)NC1CCN(C)CC1` [Compound 103] here?
A: > 500 nM

Q: `COc1ccc(C(C)(C)C)cc1NC(=O)C(=O)c1ccc(Nc2ccnc(N3CCOCC3)n2)c2ccccc12` [Compound 73] was tested. Which IC50 did it give?
A: > 500 nM

Q: `CCCS(=O)(=O)Nc1cc(C(C)(C)C)cc(NC(=O)C(=O)c2ccc(OCC(=O)c3ccc(OC)cc3)c3ccccc23)c1OC` [Compound 84] was tested. Which IC50 did it give?
A: > 500 nM

Q: With `COc1c(NC(=O)CCCCC2SCC3NC(=O)NC32)cc(C(C)(C)C)cc1NC(=O)C(=O)c1ccc(OCCN2CCOCC2)c2ccccc12` (stereo not drawn) [Compound 120] as the compound, how does the IC50 read?
A: 5 to 500 nM

Q: With `COc1ccc(C(C)(C)C)cc1NC(=O)C(=O)c1ccc(Br)c2ccccc12` [Compound 134] as the compound, how does the IC50 read?
A: 5 to 500 nM

Q: Which IC50 does the source give for `Cc1cc(-n2nc(C(C)(C)C)cc2NC(=O)C(=O)c2ccc(OCCN3CCOCC3)c3ccccc23)ccc1F` [Compound 45] here?
A: > 500 nM

Q: Which IC50 does the source give for `COc1c(NC(=O)C(=O)c2ccc(OCCN3CCN(C(=O)OC(C)(C)C)CC3)c3ccccc23)cc(C(C)(C)C)cc1NS(C)(=O)=O` [Compound 56] here?
A: 5 to 500 nM

Q: `COc1c(NC(=O)C(=O)c2ccc(OCCN3CCOCC3)c3ccccc23)cc(C(C)(C)C)cc1C(=O)N1CCN(CC2CC2)CC1` [Compound 100] was tested. Which IC50 did it give?
A: > 500 nM

Q: Which IC50 does the source give for `O=C(Nc1cnc2ccccc2c1)C(=O)c1ccc(OCCN2CCOCC2)c2ccccc12` [Compound 81] here?
A: > 500 nM

Q: How did the IC50 turn out when `CC(C)(C)c1cc(NC(=O)C(=O)c2ccc(OCCN3CCOCC3)c3ccccc23)c(O)c(C(N)=O)c1` [Compound 33] was run?
A: > 500 nM

Q: With `CC(C)(C)c1cc(N)nc(NC(=O)C(=O)c2ccc(OCCN3CCOCC3)c3ccccc23)n1` [Compound 48] as the compound, how does the IC50 read?
A: > 500 nM

Q: For `O=C(Nc1ccc2c(c1)CCC2)C(=O)c1ccc(OCCN2CCOCC2)c2ccccc12` [Compound 64], which IC50 is on record?
A: > 500 nM

Q: `CNc1ccc(-c2ccc(C(=O)C(=O)Nc3cc(C(C)(C)C)ccc3OC)c3ccccc23)cn1` [Compound 136] was tested. Which IC50 did it give?
A: < 5 nM

Q: How did the IC50 turn out when `COc1c(NC(=O)C(=O)c2ccc(OCC(N)=O)c3ccccc23)cc(C(C)(C)C)cc1NS(C)(=O)=O` [Compound 85] was run?
A: > 500 nM

Q: With `CC(C)(C)c1cc(NC(=O)C(=O)c2ccc(OCCN3CCOCC3)c3ccccc23)n(-c2ccccc2)n1` [Compound 34] as the compound, how does the IC50 read?
A: > 500 nM

Q: With `COc1c(NC(=O)C(=O)c2ccc(OCCN3CCOCC3)c3ccccc23)cc(C(C)(C)C)cc1C(=O)N1CCCN(C)CC1` [Compound 102] as the compound, how does the IC50 read?
A: > 500 nM

Q: How did the IC50 turn out when `CNC(=O)c1sc(C(C)(C)C)cc1NC(=O)C(=O)c1ccc(OCCN2CCOCC2)c2ccccc12` [Compound 12, 5-tert-butyl-N-methyl-3-(2-(4-(2-morpholinoethoxy)naphthalen-1-yl)-2-oxoacetamido)thiophene-2-carboxamide] was run?
A: < 5 nM

Q: `COc1c(NC(=O)C(=O)c2ccc(OCCN3CCOCC3)c3ccccc23)cccc1NS(C)(=O)=O` [Compound 110] was tested. Which IC50 did it give?
A: > 500 nM

Q: How did the IC50 turn out when `COc1ccc(C(C)(C)C)cc1NC(=O)C(=O)c1ccc(-c2ccc(N(C)C)nc2)c2ccccc12` [Compound 126] was run?
A: > 500 nM

Q: For `CCNC(=O)c1cc(C(C)(C)C)cc(NC(=O)C(=O)c2ccc(OCCN3CCOCC3)c3ccccc23)c1OC` [Compound 7, 5-tert-butyl-N-ethyl-2-methoxy-3-(2-(4-(2-morpholinoethoxy)naphthalen-1-yl)-2-oxoacetamido)benzamide], which IC50 is on record?
A: < 5 nM

Q: For `COc1ccc(I)cc1NC(=O)C(=O)c1ccc(OCCN2CCOCC2)c2ccccc12` [Compound 121], which IC50 is on record?
A: 5 to 500 nM

Q: `CC(C)(C)c1ccc(NC(=O)C(=O)c2ccc(OCCN3CCOCC3)c3ccccc23)cc1` [Compound 32] was tested. Which IC50 did it give?
A: > 500 nM

Q: `Cc1ccc(-n2nc(C(C)(C)C)cc2NC(=O)C(=O)c2ccc(OCCN3CCCOCC3)c3ccccc23)cc1` [Compound 38] was tested. Which IC50 did it give?
A: > 500 nM

Q: How did the IC50 turn out when `CC1(C)[C@@H]2CC[C@@]1(C)[C@@H](NC(=O)C(=O)c1ccc(OCCN3CCOCC3)c3ccccc13)C2` [Compound 69] was run?
A: > 500 nM
